Read-outs that look alike come from different tables or passages of the source.
Legend:
[1] = test system: Plasmodium falciparum strain NF54 (chloroquine-sensitive), erythrocytic stages; test: Antiplasmodial 3H-hypoxanthine incorporation assay; format: cell-based; conditions: for IC50: Plasmodium falciparum
Procedure: The assessment of antiplasmodial activity in vitro was evaluated against the erythrocytic stages of chloroquine-sensitive Plasmodium falciparum strain NF54 using a ^3H-hypoxanthine incorporation assay previously described, of which the […] NF54 strain originated from South Africa, and the standard drug chloroquine was obtained from Sigma-Aldrich (St. Louis, MO, USA). Compounds were dissolved in DMSO at 10 μg/mL and added to parasite cultures incubated in RPMI 1640 medium without hypoxanthine, supplemented with HEPES (5.94 g/L), NaHCO3 (2.1 g/L), neomycin (100 U/mL), Albumax, and washed human red cells A^+ at 2.5% hematocrit (0.3% parasitemia). Serial sample dilutions of […] dilution steps covering a range from 100 to 0.002 μg/mL were prepared. The 96-well plates were incubated in a humidified atmosphere at 37 °C; 4% CO2; 3% O2 and 93% N2. After 48 h, 50 μL of ^3H-hypoxanthine (0.5 μCi) was added to each well.

[2] = biological target: T1, HIV-1 integrase (purified recombinant HIV-1 subtype C IN) (Human immunodeficiency virus type 1 group M subtype C, UniProt Q75002); test: HIV-1 Integrase strand transfer inhibition assay; format: biochemical
T1 construct: Recombinant HIV-1 subtype CIN was assembled on to the pre-processed donor DNA
Procedure: The HIV-1 Integrase strand transfer inhibition assay was adapted from previously described methods. […] Following incubation at room temperature for 40 min and a stringent wash step, 5 µg/mL purified recombinant HIV-1 subtype CIN in integrase buffer 1 ([…] to ethanol, 50 µg/mL BSA, pH 7.5) was added to individual wells. […] Recombinant HIV-1 subtype CIN was assembled on to the pre-processed donor DNA through incubation for 45 min at room temperature. Strand transfer reaction was initiated through the addition of 10 µM (final concentration) double-stranded FITC-labelled target DNA (5′-[…]/36-FAM/-3′) annealed to (5′-[…]-/36-FAM/-3′) in integrase buffer 2 (same as buffer 1, except 25 µM MnCl2 was replaced with 2.5 µM MgCl2). After an incubation period of 60 min at 37 °C, the plates were washed using PBS containing 0.05% Tween 20 and 0.01% BSA, followed by the addition of peroxidase-conjugated sheep anti-FITC antibody (Thermo Scientific, Waltham, MA, USA) diluted 1:1000 in the same PBS buffer. Finally, the plates were washed and peroxidase substrate (Sure Blue Reserve™, KPL, Gaithersburg, MD, USA) was added to allow for detection at 620 nm using a Synergy MX (BioTek®) plate reader. Absorbance values were converted to % enzyme activity relative to the readings obtained from the control wells (enzyme without inhibitor).

[3] = chloroquine-sensitive P. falciparum NF54, mean ± SD, '-' in Table 3 = no activity, read-out: NF54: IC50 (antiplasmodial activity)
[4] = chloroquine-sensitive P. falciparum NF54, mean ± SD, '-' in Table 3 = no activity
[5] = mean ± SD; '-' in Table 2 = no inhibition detected; read-out: Assembly IC50 (anti-HIV-1 integrase activity)
[6] = mean ± SD; '-' in Table 2 = no inhibition detected

T1 sequence (Q75002 1152-1439): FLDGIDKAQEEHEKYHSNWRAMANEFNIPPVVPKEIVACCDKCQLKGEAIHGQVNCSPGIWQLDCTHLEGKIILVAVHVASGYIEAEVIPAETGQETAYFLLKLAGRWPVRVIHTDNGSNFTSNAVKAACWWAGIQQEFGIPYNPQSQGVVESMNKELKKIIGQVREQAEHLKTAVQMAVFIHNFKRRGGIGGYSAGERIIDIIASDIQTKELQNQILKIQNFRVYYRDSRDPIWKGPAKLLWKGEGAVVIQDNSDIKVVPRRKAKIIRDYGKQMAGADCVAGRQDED

IC50 ([1]; NF54, read-out: NF54: IC50 (antiplasmodial activity))	SMILES	IC50 [1, 3]	IC50 ([2]; read-out: Assembly IC50 (anti-HIV-1 integrase activity))	NF54: IC50 (antiplasmodial activity) [1, 4]	IC50 [2, 5]	Assembly IC50 (anti-HIV-1 integrase activity) [2, 6]	IC50 ([2]; read-out: Assembly IC50 (anti-HIV-1 integrase activity); mean ± SD; '-' in Table 2 = no inhibition detected)
	C[C@H]1[C@H](OC(=O)CCC(=O)O)O[C@@H]2O[C@@]3(C)CC[C@H]4[C@H](C)CC[C@@H]1[C@@]24OO3 [Artesumate, reference compound]	0.002 µM					
0.006 ± 0.002 µM	CCN(CC)CCCC(C)Nc1ccnc2cc(Cl)ccc12 (centres unmarked) [Chloroquine, reference compound]						
	O=C(c1ccc(O)cc1O)[C@@H](c1coc2cc(O)ccc2c1=O)C(c1ccc(O)cc1)c1ccc(O)cc1 [Compound 1]	> 190 µM	0.047 ± 0.021 µM	no activity			
	COc1ccc(C(c2ccc(OC)cc2)[C@@H](C(=O)c2ccc(OC)cc2O)c2coc3cc(OC)ccc3c2=O)cc1 [Compound 2, (R)-3-(1-(2′-hydroxy-4′-methoxyphenyl)-3,3-bis(4″,4‴-dimethoxyphenyl)-1-oxopropan-2-yl)-4-methoxychromenone]	4.6 ± 6.09 µM			> 20 µM		
	COc1ccc(C(c2ccc(O)cc2)[C@@H](C(=O)c2ccc(O)cc2O)c2coc3cc(OC)ccc3c2=O)cc1 (stereo partly drawn) [Compound 3, (R)-3-(1-(2′,4′-dihydroxyphenyl)-3,3-bis(4″-hydroxy-4‴-methoxyphenyl)-1-oxopropan-2-yl)-4 methoxychromenone]	7.86 ± 5.12 µM				no inhibition detected	> 20 µM
	COc1ccc(C(c2ccc(O)cc2)[C@@H](C(=O)c2ccc(O)cc2O)c2coc3cc(O)ccc3c2=O)cc1 (some centres unmarked) [Compound 4, schweinfurthianone A]	8.2 ± 0.93 µM			> 20 µM	no inhibition detected	
	COc1ccc(C(c2ccc(O)cc2)[C@@H](C(=O)c2ccc(OC)cc2O)c2coc3cc(OC)ccc3c2=O)cc1 (some centres unmarked) [Compound 5, shweinfurthianone B]	5.11 ± 13.7 µM			> 20 µM	no inhibition detected	
	O=C(/C=C/c1ccc(O)cc1)c1c(O)cc(O)c2c(C(=O)c3ccc(O)cc3O)c(-c3ccc(O)cc3)oc12 [Compound 6, calodenine B]	> 190 µM		no activity	> 20 µM	no inhibition detected	
	COc1cc(-c2coc3cc(O)cc(OC)c3c2=O)ccc1O [Compound 7, 4′,7-dihydroxy-3′,5-dimethoxyisoflavone]	> 190 µM		no activity	> 20 µM		

Source: paper PMC9414862, “In Vitro and In Silico Potential Inhibitory Effects of New Biflavonoids from Ochna rhizomatosa on HIV-1 Integrase and Plasmodium falciparum” (Pharmaceutics, 2022)
